{"source": "paper PMC9226319", "about": "“Peripherally restricted transthyretin-based delivery system for probes and therapeutics avoiding opioid-related side effects” (Nature Communications, 2022)", "key": {"in vivo [1]": {"assay": "in vivo", "details": "male, Sprague Dawley, rat, iv"}, "[2]": {"target": "T1, kappa opioid receptor (rat) (Rattus norvegicus, UniProt P34975)", "T1 construct": "Eurofins Cerep (France)", "T1 sequence (P34975 whole entry)": "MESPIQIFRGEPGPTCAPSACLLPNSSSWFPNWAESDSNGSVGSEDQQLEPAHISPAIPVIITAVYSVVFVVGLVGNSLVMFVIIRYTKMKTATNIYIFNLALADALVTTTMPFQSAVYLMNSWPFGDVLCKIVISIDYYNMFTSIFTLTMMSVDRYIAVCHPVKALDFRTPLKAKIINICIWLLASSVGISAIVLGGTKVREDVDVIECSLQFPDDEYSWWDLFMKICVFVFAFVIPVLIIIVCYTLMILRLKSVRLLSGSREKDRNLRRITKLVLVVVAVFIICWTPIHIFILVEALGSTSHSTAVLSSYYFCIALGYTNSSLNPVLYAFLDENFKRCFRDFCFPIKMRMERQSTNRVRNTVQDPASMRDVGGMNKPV", "details": "read-out: binding affinity to kappa-opioid receptor (Ki); cited from earlier work"}, "male Sprague-Dawley rats [3]": {"tested_on": "male Sprague-Dawley rats", "assay": "Gastrointestinal (GI) transit (charcoal meal) assays", "format": "in vivo, rat"}, "in vivo [4]": {"assay": "in vivo", "details": "male, Sprague Dawley, rat, iv", "remark": "listed apart in the source"}, "[5]": {"details": "rat; for plasma concentration: SC 16 µmol/kg, individual animals"}, "in vivo [6]": {"assay": "in vivo", "details": "male, Sprague Dawley, rat, sc"}, "in vitro": {"assay": "in vitro", "details": "human, % Cell viability, replicates"}, "[7]": {"details": "rat; for plasma concentration: IV 4.84 µmol/kg, individual animals"}, "TTR in human serum": {"target": "TTR in human serum (Homo sapiens, UniProt P02766)", "assay": "TTR serum fluorescent probe exclusion (FPE) selectivity assay", "format": "binding", "details": "ligand 10 µM; for %FPE probe fluorescence: human serum, replicates"}, "male Sprague-Dawley rats [8]": {"tested_on": "male Sprague-Dawley rats", "details": "rat, in vivo, sc"}}, "note": "Values joined by “and” are separate entries in the source; they are usually repeats but may differ in a detail not shown here. Identical values can stand only once. Like-named read-outs stand apart in the source and are kept apart here.", "data": [{"smiles": "C=CCN1CC[C@]23c4c5ccc(O)c4O[C@H]2[C@@H](OCCOCCOCCOCCOCCOCCOCCOC)CC[C@@]3(O)[C@H]1C5", "note": "[Naloxegol, reference compound]", "values": [{"measurement": "Kp", "setting": "in vivo [1]; percentage CSF to plasma ratio", "value": 0.15}, {"measurement": "Kp", "setting": "in vivo [1]; percentage brain to plasma ratio", "value": 0.29}, {"measurement": "Ki", "setting": "[2]", "value": 8.7, "unit": "nM"}, {"measurement": "GI transit 2.5h as % of saline group", "setting": "male Sprague-Dawley rats [3]; 3.5 μmol/kg, 2.5h, individual animals (Fig.9b)", "value": "41.7% and 40.4% and 35.2% and 39.7% and 39.3% and 42.0%"}, {"measurement": "GI transit as % of saline group", "setting": "male Sprague-Dawley rats [3]; rat, in vivo, sc", "value": "39.7 ± 2.5", "unit": "%"}, {"measurement": "AUC(0-inf)", "setting": "in vivo [4]; 4.84 umol/kg", "value": "0.741 ± 0.0336", "unit": "µM·h"}, {"measurement": "Vd", "setting": "in vivo [4]; 4.84 umol/kg", "value": "2.76 ± 0.39", "unit": "L/kg"}, {"measurement": "clearance", "setting": "in vivo [4]; 4.84 umol/kg", "value": 109, "unit": "mL/min/kg"}, {"measurement": "half-life", "setting": "in vivo [4]; 4.84 umol/kg", "value": "1.72 ± 0.27", "unit": "h"}, {"measurement": "concentration at 0.03 h", "setting": "in vivo [4]; 4.84 µmol/kg, plasma concentration, IV 4.84 µmol/kg, 0.03 h, individual animals", "value": 1900, "unit": "nM"}, {"measurement": "concentration at 0.5 h", "setting": "in vivo [4]; 4.84 µmol/kg, plasma concentration, IV 4.84 µmol/kg, 0.5 h, individual animals", "value": 206, "unit": "nM"}, {"measurement": "concentration at 2 h", "setting": "in vivo [4]; 4.84 µmol/kg, plasma concentration, IV 4.84 µmol/kg, 2 h, individual animals", "value": 17.8, "unit": "nM"}, {"measurement": "concentration at 4 h", "setting": "in vivo [4]; 4.84 µmol/kg, plasma concentration, IV 4.84 µmol/kg, 4 h, individual animals", "value": 9.2, "unit": "nM"}, {"measurement": "concentration at 8 h", "setting": "in vivo [4]; 4.84 µmol/kg, plasma concentration, IV 4.84 µmol/kg, 8 h, individual animals", "value": 2.5, "unit": "nM"}, {"measurement": "plasma concentration", "setting": "[5]; 0.03 h", "value": "247 nM and 451 nM and 135 nM"}, {"measurement": "plasma concentration", "setting": "[5]; 0.25 h", "value": "1100 nM and 1090 nM"}, {"measurement": "plasma concentration", "setting": "[5]; 0.5 h", "value": "1750 nM and 2300 nM"}, {"measurement": "plasma concentration", "setting": "[5]; 0.75 h", "value": "1870 nM and 2090 nM"}, {"measurement": "plasma concentration", "setting": "[5]; 1 h", "value": "1410 nM and 2160 nM"}, {"measurement": "plasma concentration", "setting": "[5]; 2 h", "value": "517 nM and 744 nM"}, {"measurement": "plasma concentration", "setting": "[5]; 4 h", "value": "95.6 nM and 149 nM and 239 nM"}, {"measurement": "plasma concentration", "setting": "[5]; 6 h", "value": "19 nM and 31.8 nM and 56.3 nM"}, {"measurement": "plasma concentration", "setting": "[5]; 8 h", "value": "3.9 nM and 6.7 nM and 10.6 nM"}, {"measurement": "k", "setting": "[5]; single SC dose 16 µmol/kg", "value": "0.79 ± 0.02", "unit": "h⁻¹"}, {"measurement": "AUC(0-inf)", "setting": "in vivo [6]; 16 umol/kg", "value": "3.68 ± 0.566", "unit": "µM·h"}, {"measurement": "CL/F", "setting": "in vivo [6]; 16 umol/kg", "value": 72.8, "unit": "mL/min/kg"}, {"measurement": "Vd/F", "setting": "in vivo [6]; 16 umol/kg", "value": "5.58 ± 0.96", "unit": "L/kg"}, {"measurement": "half-life", "setting": "in vivo [6]; 16 umol/kg", "value": "0.88 ± 0.02", "unit": "h"}, {"measurement": "concentration at 0.25 h", "setting": "in vivo [6]; 16 µmol/kg, plasma concentration, SC 16 µmol/kg, 0.25 h, individual animals", "value": 1930, "unit": "nM"}, {"measurement": "concentration at 0.5 h", "setting": "in vivo [6]; 16 µmol/kg, plasma concentration, SC 16 µmol/kg, 0.5 h, individual animals", "value": 2470, "unit": "nM"}, {"measurement": "concentration at 0.75 h", "setting": "in vivo [6]; 16 µmol/kg, plasma concentration, SC 16 µmol/kg, 0.75 h, individual animals", "value": 2870, "unit": "nM"}, {"measurement": "concentration at 1 h", "setting": "in vivo [6]; 16 µmol/kg, plasma concentration, SC 16 µmol/kg, 1 h, individual animals", "value": 1970, "unit": "nM"}, {"measurement": "concentration at 2 h", "setting": "in vivo [6]; 16 µmol/kg, plasma concentration, SC 16 µmol/kg, 2 h, individual animals", "value": 548, "unit": "nM"}, {"measurement": "viability at 72 h, 10 µM", "setting": "in vitro; 10 μM", "value": 103, "unit": "%"}, {"measurement": "viability at 72 h, 100 µM", "setting": "in vitro; 100 μM", "value": 99, "unit": "%"}, {"measurement": "plasma concentration", "setting": "[7]; 0.03 h", "value": "2193.9 nM and 2301.3 nM"}, {"measurement": "plasma concentration", "setting": "[7]; 0.5 h", "value": "144.7 nM and 149.7 nM"}, {"measurement": "plasma concentration", "setting": "[7]; 1 h", "value": "58 nM and 27.2 nM and 41.1 nM"}, {"measurement": "plasma concentration", "setting": "[7]; 2 h", "value": "16.1 nM and 15.5 nM"}, {"measurement": "plasma concentration", "setting": "[7]; 4 h", "value": "4.6 nM and 6.8 nM"}, {"measurement": "plasma concentration", "setting": "[7]; 6 h", "value": "1.8 nM and 4 nM and 5.8 nM"}, {"measurement": "plasma concentration", "setting": "[7]; 8 h", "value": "2.3 nM and 1.4 nM"}, {"measurement": "k", "setting": "[7]; single IV bolus 4.84 µmol/kg", "value": "0.41 ± 0.06", "unit": "h⁻¹"}, {"measurement": "% TTR occupancy in human serum", "setting": "TTR in human serum; FPE probe 3.6 µM, 3 h reading relative to probe alone, text mean ± s.d., table replicates", "value": "14.09% and 13.76% and 18.08% and 17.39%"}, {"measurement": "%FPE probe fluorescence", "setting": "TTR in human serum; time 0.000 h", "value": 0.000, "unit": "%"}, {"measurement": "%FPE probe fluorescence", "setting": "TTR in human serum; time 0.083 h", "value": "-1.162% and 0.076% and 1.061% and 2.494%"}, {"measurement": "%FPE probe fluorescence", "setting": "TTR in human serum; time 0.250 h", "value": "12.642% and 13.881% and 14.653% and 16.580%"}, {"measurement": "%FPE probe fluorescence", "setting": "TTR in human serum; time 0.500 h", "value": "29.770% and 29.601% and 35.277% and 32.978%"}, {"measurement": "%FPE probe fluorescence", "setting": "TTR in human serum; time 1.000 h", "value": "51.856% and 49.775% and 51.097% and 53.857%"}, {"measurement": "%FPE probe fluorescence", "setting": "TTR in human serum; time 1.250 h", "value": "58.967% and 56.462% and 55.901% and 61.434%"}, {"measurement": "%FPE probe fluorescence", "setting": "TTR in human serum; time 1.500 h", "value": "63.979% and 62.154% and 61.352% and 66.100%"}, {"measurement": "%FPE probe fluorescence", "setting": "TTR in human serum; time 1.750 h", "value": "70.669% and 69.322% and 65.355% and 73.049%"}, {"measurement": "%FPE probe fluorescence", "setting": "TTR in human serum; time 2.000 h", "value": "72.778% and 74.065% and 70.075% and 75.601%"}, {"measurement": "%FPE probe fluorescence", "setting": "TTR in human serum; time 2.250 h", "value": "79.286% and 77.129% and 72.043% and 79.051%"}, {"measurement": "%FPE probe fluorescence", "setting": "TTR in human serum; time 2.500 h", "value": "80.847% and 80.185% and 76.560% and 80.986%"}, {"measurement": "%FPE probe fluorescence", "setting": "TTR in human serum; time 2.750 h", "value": "84.987% and 82.916% and 77.033% and 84.908%"}, {"measurement": "%FPE probe fluorescence", "setting": "TTR in human serum; time 3.000 h", "value": "85.911% and 86.240% and 81.919% and 82.607%"}, {"measurement": "%FPE probe fluorescence", "setting": "TTR in human serum; time 3.500 h", "value": "89.826% and 88.173% and 84.101% and 88.948%"}, {"measurement": "%FPE probe fluorescence", "setting": "TTR in human serum; time 3.750 h", "value": "85.342% and 89.201% and 87.815% and 89.262%"}, {"measurement": "%FPE probe fluorescence", "setting": "TTR in human serum; time 4.000 h", "value": "92.972% and 91.077% and 85.636% and 94.755%"}, {"measurement": "%FPE probe fluorescence", "setting": "TTR in human serum; time 4.250 h", "value": "92.674% and 90.338% and 87.389% and 92.827%"}, {"measurement": "%FPE probe fluorescence", "setting": "TTR in human serum; time 4.500 h", "value": "93.747% and 95.743% and 86.912% and 94.592%"}, {"measurement": "%FPE probe fluorescence", "setting": "TTR in human serum; time 4.750 h", "value": "93.049% and 92.357% and 88.468% and 95.740%"}, {"measurement": "%FPE probe fluorescence", "setting": "TTR in human serum; time 5.000 h", "value": "94.380% and 93.149% and 88.822% and 94.667%"}, {"measurement": "%FPE probe fluorescence", "setting": "TTR in human serum; time 5.250 h", "value": "94.178% and 93.087% and 90.315% and 94.928%"}, {"measurement": "%FPE probe fluorescence", "setting": "TTR in human serum; time 5.500 h", "value": "92.258% and 94.965% and 88.366% and 97.216%"}, {"measurement": "%FPE probe fluorescence", "setting": "TTR in human serum; time 5.750 h", "value": "93.772% and 93.937% and 90.079% and 96.029%"}, {"measurement": "%FPE probe fluorescence", "setting": "TTR in human serum; time 6.000 h", "value": "96.902% and 93.100% and 91.727% and 96.188%"}, {"measurement": "hot plate latency", "setting": "male Sprague-Dawley rats [8]", "value": "17.6 ± 4.0", "unit": "s"}]}]}
